This note sets out measurements from PMC6099493, “Discovery of Matrinic Thiadiazole Derivatives as a Novel Family of Anti-Liver Fibrosis Agents via Repression of the TGFβ/Smad Pathway” (Molecules : A Journal of Synthetic Chemistry and Natural …, 2018).

In one series the test system is COL1A1 protein. As to the kind of experiment: COL1A1 protein level by western blot in LX-2 cells. It is filed as cell-based. The conditions noted are these: Homo sapiens, TGFβ1 2 ng/mL, read-out: COL1A1 protein level inhibition rate. How it is done:
(§1) Next, compounds 6i, 6l and 6n were chosen as the key compounds to verify their inhibitory effects against COL1A1. LX-2 cells were stimulated with TGFβ1 (2 ng/mL), and then treated with compounds 6i, 6l and 6n (80 μM) respectively, taking 1 as the control. Their anti-COL1A1 effects were evaluated on RNA level by real-time PCR amplification. […] Then their anti-COL1A1 effects were investigated on the protein level by western blot assays.
(§2) LX-2 cells were cultured as described above. Briefly, cells were washed with phosphate-buffered saline (PBS) and were lysed in radioimmunoprecipitation assay (RIPA) lysis for 30 min in 4 °C; the supernatant was collected after centrifugation at 12,000× g, 4 °C for 15 min. Equal amounts of protein were quantified with Bradford assay, separated by SDS-PAGE and transferred to polyvinylidene difluoride membrane. The membranes were blocked for one hour at room temperature in PBST containing 5% milk and probed with specific first antibodies overnight at room temperature. Membrane was washed 3 times by PBST, followed by horseradish peroxidase-conjugated secondary antibodies and GAPDH. The proteins were visualized using chemiluminescence reagents.
On the technique in general: In western blotting, separated proteins are transferred to a membrane and probed.

In a further series the test system is α-SMA mRNA. In words: α-SMA mRNA level by real-time PCR in TGFβ1-stimulated LX-2 cells. In kind it is cell-based, human. As to conditions: 80 μM, TGFβ1 2 ng/mL. How it is done:
(§3) α-SMA is a more commonly recognized indicator for liver fibrosis, and it could be induced by a stimulation of TGFβ1 [22], therefore, the amounts of α-SMA were also evaluated.
(§4) LX-2 cells were seeded in 6-well plate, cultured in DMEM, containing 10% fetal bovine serum (FBS) in a 5% CO2 atmosphere at 37 °C. And serum-free culture was required until the cells at 90–95% confluence. After 24 h, cells were treated with TGFβ1 (2 ng/mL) and matrinic derivatives (80 μM) for 24 h. Total RNA from the LX-2 cells was extracted using Trizol reagent, purified by NucleoSpin RNA Clean-up. Reverse transcription was performed with a Transcriptor first strand cDNA synthesis kit. The cDNA was then analysis by ABI 7500 Fast Real-Time PCR System (ThermoFisher Scientific, Singapore) using TaqMan probes of TGFβ1, COL1A1, α-SMA, and GAPDH (sequence reserved by ABI, Foster City, CA ,USA) and FastStart Universal Probe master mix (Roche, Indianapolis, IN, USA).
A general note: Quantitative PCR measures a nucleic acid by following its amplification.

A further series deals with COL1A1 promotor. In words: COL1A1 promotor single luciferase reporter gene model in LX-2 (LX2-COL) cells. In kind it is cell-based, human. As to conditions: Homo sapiens, LX-2 cells treated simultaneously with TGFβ1 and compound, read-out: Inhibition Percentage (inhibition rate of COL1A1 promotor's activity in LX2 cells). In general terms: In a reporter assay the amount or activity of a reporter protein is the signal.

A short description of series [1]: MTT cytotoxicity / cell survival assay. It is filed as cell-based. As to conditions: human, HepG2 cells, read-out: CC50 (cytotoxic concentration required to inhibit HepG2 cell growth by 50%). How it is done:
(§5) A single luciferase reporter gene detection model was applied to screen the inhibitory effects towards COL1A1 promotor of all target compounds in human hepatic stellate LX-2 cells at the concentration of 40 μM, taking EGCG and compound 1 as the positive controls. The LX2-COL monoclone cell line was treated simultaneously with TGFβ1 and a target compound [13]. The cytotoxicity was determined using MTT assay in HepG2 cells.
(§6) The cell survival was evaluated by MTT assay. HepG2 cells were seeded at density of 6 × 10^3 cells/well in 96-well plate. Cells were treated with various concentrations of matrinic derivate until the cells at 50% confluence. After 24 h of incubation, 20 µL of the MTT (5 mg/mL) solution was added into each plate and incubated for 4 h at 37 °C, 5% CO2. Subsequently, the culture supernatant was replaced with 150 µL DMSO to dissolve the formazan crystal. The absorbance at 570 nm was measured using a microplate reader (ELx800, BioTek Instruments, Winooski, VT, USA).

Another series relates to COL1A1 mRNA. In words: COL1A1 mRNA level by real-time PCR in TGFβ1-stimulated LX-2 cells. In kind it is cell-based, human. As to conditions: 80 μM, TGFβ1 2 ng/mL. The procedure:
as §1, §4

Another series concerns α-SMA protein. In words: α-SMA protein level by western blot in LX-2 cells. It is filed as cell-based. As to conditions: Homo sapiens, TGFβ1 2 ng/mL, read-out: α-SMA protein level inhibition rate. How it is done: as §3, §2
A further series has as its system HepG2 cells. In words: MTT cytotoxicity / cell survival assay. In kind it is cell-based. As to conditions: read-out: CC50 (cytotoxic concentration required to inhibit HepG2 cell growth by 50%). How it is done: as §5, §6
In series [2] the test system is Smad2 / phosphorylated Smad2 (TGFβ/Smad pathway). In words: Smad2 and p-Smad2 levels by western blot in LX-2 cells. It is filed as cell-based, human. The procedure:
Considering the key role of TGFβ/Smad pathway in activating COL1A1, the effects of the three compounds on Smad and phosphorylated Smad were then evaluated.
as §2

The test system of a further series is Kunming mice. As to conditions: female, mouse, in vivo, po, 7 days. The procedure:
To evaluate the safety profile of 6n, an acute toxicity test was performed in Kunming mice. Compound 6n was given orally in a single-dosing experiment at 125, 250 or 500 mg·kg^−1, respectively. The mice were closely monitored for 7 days. To our delight, it gave the median lethal dose (LD50) value over 500 mg·kg^−1, indicating a good safety profile in vivo.
Female Kunming mice with weight of 20.0 (±1.0 g) were obtained from the Institute of Laboratory Animal Science (Beijing, China). Animals were cared according to the institutional guidelines of the Institute of Materia Medica, CAMS&PUMC (00000364). The mice were fed with regular rodent chow and housed in an air conditioned room. The mice were randomly divided into different groups with 6 mice each. Each compound was given orally in a single-dosing experiment at 0, 250, 500, 750 or 1000 mg·kg^−1 (ddH2O as control), respectively. The mice were closely monitored for 7 days. Body weight as well as survival was monitored.

Molecules are shown by their SMILES. Where a name gives a salt, the structure may show the parent alone.

In the case of `Cc1ccc(S(=O)(=O)N2CC3CCCN4CCCC(C34)C2CCCC(=O)O)cc1` (stereo not shown) [Compound 1, 12-N-p-Methylbenzenesulfonyl matrinic acid], the melting point – broadly, the temperature of the solid-liquid transition – was 239 to 240 °C. Besides, the inhibition (as a rule, the drop in the measured response relative to a control, in per cent) at 80 µM in the series on COL1A1 protein amounted to 16.2%. Also, in the series with α-SMA mRNA, the “α-SMA mRNA level inhibitory rate” value is reported as 69.7%. For the same compound, the inhibition at 40 µM with COL1A1 promotor came to 18.5%. The CC50 at 24 h in series [1] is more than 320 µM. The “COL1A1 mRNA level inhibitory rate” value in the series on COL1A1 mRNA was found to be 41.9%. Besides, the inhibition at 80 µM in the series with α-SMA protein was 28.9%.
Turning to `Cc1ccc(S(=O)(=O)N2CC3CCCN4CCCC(C34)C2CCCc2nnc(Nc3ccccc3)s2)cc1` (stereo not shown) [Compound 6e, 12-N-p-Methylbenzenesulfonyl-3′-(N-phenyl-5-amino-1,3,4-thiadiazol-2-yl)-matrinic propane], in the series with COL1A1 promotor, the inhibition at 40 µM is 69%. Further, the CC50 in the series on HepG2 cells turned out to be 82.5 µM. Besides, the CC50 at 24 h in [1] is more than 82.6 µM.
Compound `Nc1nnc(CCCC2C3CCCN4CCCC(CN2Cc2ccccc2)C34)s1` (stereo not shown) [Compound 6i, 12-N-Benzyl-3′-(5-amino-1,3,4-thiadiazol-2-yl)-matrinic propane] displayed a melting point of 170 to 171 °C. For the same compound, in series [2], the “Effect on Smad level” value is “did not affect the Smad level” and the “Effect on phosphorylation level of Smad2 (in words)” value (from here on “Effect on phosphorylation level”) is recorded as “repressed the phosphorylation level of Smad2 significantly”. The inhibition at 80 µM with COL1A1 protein is 65%. Further, in the series with α-SMA mRNA, the “α-SMA mRNA level inhibitory rate” value is given as 75.1%. For the same compound, the inhibition at 40 µM in the series with COL1A1 promotor is 47.8%. Further, the CC50 at 24 h in series [1] was more than 320 µM. In addition, the “COL1A1 mRNA level inhibitory rate” value in the series with COL1A1 mRNA came out at 46.1%. For the same compound, the inhibition at 80 µM with α-SMA protein worked out at 64.9%.
Consider `Cc1ccc(CN2CC3CCCN4CCCC(C2CCCc2nnc(N)s2)C34)cc1` (stereo not shown) [Compound 6l, 12-N-p-Methylbenzyl-3′-(5-amino-1,3,4-thiadiazol-2-yl)-matrinic propane], for which the melting point is 167 to 168 °C. Further, in series [2], the “Effect on Smad level” value was “did not affect the Smad level” and the “Effect on phosphorylation level” value is “repressed the phosphorylation level of Smad2 significantly”. For the same compound, the inhibition at 80 µM with COL1A1 protein was 99.3%. Also, the “α-SMA mRNA level inhibitory rate” value with α-SMA mRNA turned out to be 82.5%. In addition, the inhibition at 40 µM in the series with COL1A1 promotor stood at 38.7%. For the same compound, in [1], the CC50 at 24 h is more than 320 µM. Further, the inhibition at 80 µM in the series on α-SMA protein came to 93.8%.
Consider `Cc1ccc(CN2CC3CCCN4CCCC(C2CCCc2nnc(N(C)C)s2)C34)cc1` (stereo not shown) [Compound 6n, 12-N-p-Methylbenzyl-3′-(N,N-dimethyl-5-amino-1,3,4-thiadiazol-2-yl)-matrinic propane hydrochloride], for which, in series [2], the “Effect on Smad level” value is given as “did not affect the Smad level”, the “Effect on phosphorylation level” value was “repressed the phosphorylation level of Smad2 significantly” and the “Inhibition rate of Smad2 phosphorylation level” value is reported as 49.8%. In addition, in the series with COL1A1 protein, the inhibition at 80 µM was 47.6%. Further, the “α-SMA mRNA level inhibitory rate” value with α-SMA mRNA is on record as 87.6%. Also, the inhibition at 40 µM in the series on COL1A1 promotor worked out at 39.7%. In addition, the CC50 at 24 h in series [1] is more than 320 µM. Further, the “median lethal dose (LD50)” value in the series on Kunming mice is recorded as “over 500 mg·kg^−1”. Besides, the “COL1A1 mRNA level inhibitory rate” value with COL1A1 mRNA came out at 78.4%. Also, the inhibition at 80 µM in the series with α-SMA protein is 104%.
